Among the data in PubChem BioAssay (NCI) are TGI and GI50 values, retold here.

Test systems include DMS 273 small cell lung; HOP-18 NSCLC; KM20L2 colon; LXFL 529 NSCLC; SNB-78 CNS; MDA-N; DMS 114 small cell lung; XF 498 CNS; RXF-631 renal.
Common to all, as to test: NCI tumour cell line growth inhibition, 48 h

The structures appear in SMILES notation. Values joined by “and” are separate entries in the source; they are usually repeats but may differ in a detail not shown here. Identical values can stand only once.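 Exposure lasted 48 hours, with cells grown in 96-well plates and compounds tested at five concentrations. Here, GI50 denotes the concentration required for 50% inhibition of growth. TGI marks complete inhibition of growth.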

`COC(=O)/C(=N\NC(=O)C[N+](C)(C)C)C(C(=O)OC)C(=O)C(=O)Nc1ccccc1C(N)=O` (stereo not given): the TGI in the assay with DMS 273 small cell lung, in the assay on HOP-18 NSCLC, in the assay on KM20L2 colon, with LXFL 529 NSCLC and with SNB-78 CNS was more than 100 µM throughout.

`O=[N+]([O-])c1ccc2c(c1)Cc1cc(N=Cc3ccc4c(c3)OCO4)ccc1-2` had a TGI with MDA-N of more than 100 µM.

As to `COc1cccc2c1C(=O)c1c(O)c3c(c(O)c1C2=O)CC(O)(C(O)CO)CC3OC1CC(N2CCOCC2)C(O)C(C)O1` (stereo not given), the GI50 in the assay on DMS 114 small cell lung and in the assay on SNB-78 CNS was less than 0.001 µM in each case. Further, the TGI in the assay with DMS 273 small cell lung was 0.0109 µM and 0.0429 µM; in the assay on HOP-18 NSCLC it was 0.00797 µM; with KM20L2 colon, 0.0943 µM; in the assay on LXFL 529 NSCLC, 0.0553 µM; with MDA-N it was 0.1 µM; with SNB-78 CNS, 0.0323 µM and 0.188 µM. Also, the TGI with XF 498 CNS is 0.0478 µM.

`O=c1[nH]nc2ccccc2c1Cc1ccccc1`: the TGI with DMS 114 small cell lung, in the assay with DMS 273 small cell lung, in the assay with HOP-18 NSCLC, in the assay with KM20L2 colon, in the assay with SNB-78 CNS and in the assay with XF 498 CNS was more than 100 µM in each case.

Take `O=C(NC(=O)c1cn(CCN(CCO)C(=O)NCCCCCCNC(=O)N(CCO)CCn2cc(C(=O)NC(=O)OCc3ccccc3)c(=O)[nH]c2=O)c(=O)[nH]c1=O)OCc1ccccc1`: the TGI with DMS 114 small cell lung, in the assay on DMS 273 small cell lung, with HOP-18 NSCLC, in the assay on KM20L2 colon, in the assay with RXF-631 renal and in the assay with SNB-78 CNS was more than 100 µM throughout. Further, the TGI in the assay with XF 498 CNS is more than 100 µM.

Consider `CC1CC2OC(=O)C(C)C2CC2(C)C(OC3OC(CO)C(O)C(O)C3O)OCCC12` (stereo not given), for which the TGI in the assay on MDA-N is more than 100 µM.

As for `Clc1ccc(N=Nc2nc3ccccc3nc2N=Nc2ccc(Cl)cc2Cl)c(Cl)c1`, the TGI in the assay on DMS 114 small cell lung, in the assay on KM20L2 colon, in the assay with LXFL 529 NSCLC, in the assay on SNB-78 CNS and in the assay on XF 498 CNS was more than 100 µM each time.

On to `CCN(CC)CCOc1ccc(CCc2cc(OC)c(OC)c(OC)c2)cc1`, for which the TGI in the assay with DMS 114 small cell lung is 73.8 µM; in the assay with DMS 273 small cell lung it was 35.8 µM; in the assay on HOP-18 NSCLC it was more than 100 µM; with KM20L2 colon it was more than 100 µM; in the assay on LXFL 529 NSCLC, more than 100 µM; in the assay on RXF-631 renal it was more than 100 µM. Besides, the TGI is more than 100 µM with SNB-78 CNS and 57.7 µM with XF 498 CNS.

Turning to `COc1ccc(C2CC(C)(O)Oc3cc4c(cc32)OCO4)cc1` (stereo not given), the TGI in the assay on MDA-N was 36.4 µM.

As to `Cc1ccc(SSc2ccc(C)cc2C(=O)O)c(C(=O)O)c1`, the TGI in the assay with DMS 273 small cell lung, with KM20L2 colon, in the assay with LXFL 529 NSCLC, in the assay on RXF-631 renal and with SNB-78 CNS was more than 100 µM throughout.

On to `CC1OC(OC2C[C@](O)(C(=O)CF)Cc3c(O)c4c(c(O)c32)C(=O)c2ccccc2C4=O)CC(N)C1O` (stereo not given in full), for which the TGI with DMS 114 small cell lung amounted to 0.142 µM; with DMS 273 small cell lung, 0.104 µM; with KM20L2 colon it was 0.353 µM; in the assay with LXFL 529 NSCLC, 1.27 µM; in the assay on MDA-N, 0.333 µM; in the assay on SNB-78 CNS, 3.53 µM. Moreover, the TGI in the assay on XF 498 CNS amounted to 0.389 µM.

As to `C=CCNC(=O)N(CCCC(NC(C)=O)C(=O)NCc1ccccc1)Cc1ccccc1` (stereo not given), the TGI in the assay with DMS 114 small cell lung, in the assay on DMS 273 small cell lung, with HOP-18 NSCLC, in the assay with KM20L2 colon, in the assay with LXFL 529 NSCLC and in the assay with XF 498 CNS was more than 100 µM each time.

For the molecule `Cc1oc2c(C)c3oc(=O)cc(C)c3cc2c1CN1C(=O)C2OCCOCCOCCOCCOCCO[C@H]2C1=O` (stereo not given in full), the TGI in the assay with DMS 114 small cell lung is more than 100 µM; with DMS 273 small cell lung it was more than 100 µM; in the assay on HOP-18 NSCLC, more than 100 µM; with KM20L2 colon, more than 100 µM; with LXFL 529 NSCLC, more than 100 µM; in the assay with RXF-631 renal, 74.2 µM. This molecule also showed a TGI in the assay with SNB-78 CNS of more than 100 µM.

`COc1ccc2c(c1)[n+]([O-])c(-c1ccc(OC)c(OC)c1)c(N)[n+]2[O-]`: the TGI in the assay with DMS 114 small cell lung, with DMS 273 small cell lung, in the assay on HOP-18 NSCLC, with KM20L2 colon, with LXFL 529 NSCLC and with SNB-78 CNS was more than 100 µM in each case. Besides, the TGI with XF 498 CNS was more than 100 µM.

The molecule `COc1ccc2c(=O)cc(-c3ccncc3)oc2c1OC` showed a TGI with MDA-N of 98.9 µM.

In the case of `C#CC1(O)C(COP(=O)(O)OC(COCCCCCCCCCCCCCCCCCC)COP(=O)(O)OCC2OC(n3cc(F)c(=O)[nH]c3=O)CC2O)OC(n2ccc(N)nc2=O)C1O` (stereo not given), the TGI in the assay on MDA-N is 12.4 µM and 13.7 µM.

Consider `O=C(O)c1cc2ccc3ccccc3c2oc1=O`, for which the TGI in the assay with MDA-N is more than 100 µM.

`CN(C)CCNC(=O)c1cc([N+](=O)[O-])cc2c1Oc1ccccc1O2` came in with a TGI with MDA-N of more than 100 µM.

For the molecule `COC1OC(CBr)C(OC(=O)c2ccccc2)C(O)C1Br` (stereo not given), the TGI is more than 100 µM with DMS 273 small cell lung; more than 100 µM in the assay with HOP-18 NSCLC; more than 100 µM with KM20L2 colon; more than 100 µM in the assay with LXFL 529 NSCLC; more than 100 µM in the assay with SNB-78 CNS; more than 10 µM in the assay with XF 498 CNS.

For `O=C1NC2(CCCCCC2)C2CCCCCCC12O` (stereo not given), the TGI in the assay with DMS 114 small cell lung, in the assay with DMS 273 small cell lung, in the assay with HOP-18 NSCLC, in the assay on LXFL 529 NSCLC, in the assay on SNB-78 CNS and with XF 498 CNS was more than 100 µM in each case.

As to `Cc1cc2c(C)nn(Cc3ccccc3)c2c(C(N)=O)c1C`, the TGI in the assay on DMS 114 small cell lung, in the assay on DMS 273 small cell lung, with KM20L2 colon, in the assay on LXFL 529 NSCLC, in the assay on SNB-78 CNS and in the assay with XF 498 CNS was more than 100 µM each time.

For `O=c1cc(-c2ccccc2F)[nH]c2ccc(N3CCCC3)cc12`, the GI50 in the assay with MDA-N was less than 0.001 µM.

On to `c1ccc(C(c2ccccc2)c2cccnc2)cc1`, for which the TGI with DMS 114 small cell lung, in the assay with DMS 273 small cell lung, in the assay with HOP-18 NSCLC, in the assay on KM20L2 colon, in the assay with RXF-631 renal and in the assay on SNB-78 CNS was more than 100 µM throughout.

Regarding `COc1cc2oc3cc(=O)cc4oc(-c5ccccc5)cc(c2c2c1CCC(c1ccccc1)O2)c43` (stereo not given), the TGI with MDA-N was more than 100 µM.
